# Assays:
# FPPS [1] = biological target: T1, FPPS (Homo sapiens, UniProt P14324)
# Target sequence in this assay (P14324 72-419): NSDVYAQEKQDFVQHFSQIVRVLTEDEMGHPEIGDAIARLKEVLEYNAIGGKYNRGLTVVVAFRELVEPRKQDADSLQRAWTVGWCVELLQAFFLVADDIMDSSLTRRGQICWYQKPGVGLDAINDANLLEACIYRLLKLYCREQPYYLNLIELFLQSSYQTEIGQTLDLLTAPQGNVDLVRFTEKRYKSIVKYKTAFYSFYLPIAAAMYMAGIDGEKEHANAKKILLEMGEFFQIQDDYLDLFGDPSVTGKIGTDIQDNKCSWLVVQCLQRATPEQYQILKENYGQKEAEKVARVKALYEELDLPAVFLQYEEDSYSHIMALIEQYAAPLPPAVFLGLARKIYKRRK
# FPPS [2] = biological target: T1, FPPS; settings: with respect to allylic substrates and IPP; cited from earlier work
# Target sequence in this assay (P14324 whole entry): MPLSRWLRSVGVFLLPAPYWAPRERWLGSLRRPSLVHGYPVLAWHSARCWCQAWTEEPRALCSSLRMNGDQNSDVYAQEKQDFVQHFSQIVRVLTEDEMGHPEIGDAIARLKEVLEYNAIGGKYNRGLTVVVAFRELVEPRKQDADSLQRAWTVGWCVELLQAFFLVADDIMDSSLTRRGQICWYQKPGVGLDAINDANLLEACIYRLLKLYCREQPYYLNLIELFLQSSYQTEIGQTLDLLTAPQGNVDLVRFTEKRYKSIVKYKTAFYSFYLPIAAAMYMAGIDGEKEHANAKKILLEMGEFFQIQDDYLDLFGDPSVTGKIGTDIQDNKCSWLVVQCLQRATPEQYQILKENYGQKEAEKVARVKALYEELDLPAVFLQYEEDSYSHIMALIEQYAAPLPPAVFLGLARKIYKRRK
smiles,measurement,setting,value
NCCC(O)(P(=O)(O)O)P(=O)(O)O [pamidronate],"chemical shift changes in 15N,1H-TROSY spectrum upon ligand addition","FPPS [1]; FPPS dimer 60 μM, pamidronate 270 μM, Mg2+ 900 μM",almost all of the non-overlapping resonances experience chemical shift changes
NCCCC(O)(P(=O)(O)O)P(=O)(O)O [alendronate],mode of FPPS inhibition,FPPS [2],competitive with respect to allylic substrates but not IPP
"C=C(C)CCOP(=O)(O)OP(=O)(O)O [IPP, isopentenyl diphosphate]",binding in the presence of zoledronate/Mg2+ (NMR),FPPS [1]; IPP 400 μM added to FPPS/zoledronate/Mg2+ sample,binds to FPPS even in the presence of zoledronate

# — patent US20080139449A1 (priority 2005, published 2008)
